Test results taken from US4540692A, “Anti-inflammatory N-(1-oxo-2,4,6-cycloheptatrienyl)2H-1,2-benzothiazine-3-carboxamide 1,1-dioxide derivatives, compositions, and method of use” (Fujisawa Pharmaceutical Co., Ltd., priority 1983, dated 1985).

Tested on: carrageenin edema
Assay: Carrageenin edema test
Type: in vivo, Sprague-Dawley rats
Conditions: rat hind paw, 10 mg/kg oral, 60 minutes prior to carrageenin (0.1 ml, 1%); edema weight 3 hours after injection
Experimental: Five Sprague-Dawley rats were fasted for 24 hours and submitted to the study. First, 0.1 ml of carrageenin (1%) was subcutaneously injected into the paw of the right hind limb and after 3 hours the rat was sacrificed. The untreated limb and the edematous limb were respectively incised off at the junction of the tibia and weighed. The difference in weight between the edematous limb and the untreated limb was taken as the weight of the edema.
The test compound was orally administered 60 minutes prior to the administration of carrageenin and the swelling in the treated limb was compared with that in the control limb. The test compound was administered in a dose of 10 mg/kg.

CN1C(C(=O)Nc2cccccc2=O)=C(O)c2ccccc2S1(=O)=O [Example 1, 4-hydroxy-2-methyl-N-(1-oxo-2,4,6-cycloheptatrien-2-yl)-2H-1,2-benzothiazine-3-carboxamide 1,1-dioxide]
% Inhibition of carrageenin edema: 51.4%
